Results reported in US5124146A, “Differential delivery of therapeutic agents across the blood brain barrier” (The State of Oregon Acting by and through the State Board …, priority 1991, dated 1992).
“And” between values parts separate entries of the source, which are not always exact repeats. Identical values can stand only once.

Tests used:
antigentamicin antibody = experiment: precipitable radioactivity (% bound) in tissue and serum after antigentamicin antibody (immune serum); type: in vivo
Text: (§1) Pre: Precipitable radioactivity from serum prior to antibody
(§2) Post: Precipitable radioactivity from serum after antibody administration
(§3) PPer: Precipitable radioactivity from serum after perfusion of rat
(§4) % Bound: Percent precipitable radioactivity from tissue sample

serum proteins = experiment: non-specific precipitation/binding of gentamicin to serum proteins and tissue (pre-antibody serum, or non-immune serum); type: in vivo, Sprague-Dawley rat; details: non-immune serum, pre and post serum
Text: as §1, §2, §3, §4

[1] = percent clearance of activity from serum by perfusion; type: in vivo, Sprague-Dawley rat; details: for C1: percent clearance of activity from serum: individual rat, postperfusion/preperfusion × 100
Procedure: Subsequently, dosages of ^125 I-gentamicin were administered intravenously.
C1: Percent clearance of activity from serum

[2] = injected directly into the rat brain; cited from earlier work

gentamicin
% Bound: percent precipitable radioactivity from tissue sample, LH (non abscess bearing hemisphere) (antigentamicin antibody; individual rat): 49% and 55% and 52% and 41% and 50%
% Bound, Post: precipitable radioactivity from serum after antibody administration (antigentamicin antibody; individual rat, 15 minutes after antibody): 97% and 96% and 94%
% Bound, P-Per: precipitable radioactivity from serum after perfusion of rat (antigentamicin antibody; individual rat, after perfusion): 75% and 70% and 79% and 77%
% Bound (tissue), AB (abscess), mean value (antigentamicin antibody; mean): 56%
% Bound (tissue), LH (non abscess bearing hemisphere), mean value (antigentamicin antibody; mean): 51%
% Bound, Post: serum precipitation after antibody, mean value (antigentamicin antibody; mean, 15 minutes after antibody): 96%
% Bound, P-Per: serum precipitation after perfusion, mean value (antigentamicin antibody; mean, after perfusion): 70%
non-specific precipitation with serum proteins (in words) (serum proteins): nonspecifically precipitates with serum proteins
C1: percent clearance of activity from serum ([1]; Immune serum): 99% and 97% and 92% and 95% and 94% and 96%
C1: percent clearance of activity from serum, mean value ([1]; Immune serum): 96%
C1: percent clearance of activity from serum ([1]; Non immune serum): 84% and 86% and 85%
C1: percent clearance of activity from serum, mean value ([1]; Non immune serum): 85%

CCCCC/C=C\C/C=C\C/C=C\C/C=C\CCCC(=O)O [arachidonic acid]
effect on BBB permeability [2]: increase BBB permeability
